Measured values as given in patent publication US9273043B2, “TRPV1 antagonists including dihydroxy substituent and uses thereof” (Purdue Pharma L.P., priority 2011, dated 2016).

Tested on: neuropathic mechanical hyperalgesia after partial sciatic nerve ligation
Assay: Seltzer model (partial sciatic nerve ligation) of neuropathic pain, paw withdrawal threshold
Format: in vivo, rat
Conditions: for % Reversal [mean ± SEM]: rat; for % reversal of neuropathic hyperalgesia / % reversal of neuropathic hyperalgesia, maximum analgesic efficacy: rat Seltzer model
Description: In the Seltzer model, the partial sciatic nerve ligation model of neuropathic pain was used to produce neuropathic hyperalgesia in rats (Seltzer et al., “A Novel Behavioral Model of Neuropathic Pain Disorders Produced in Rats by Partial Sciatic Nerve Injury,” Pain 43:205-218 (1990)). Partial ligation of the left sciatic nerve was performed under isoflurane/O2 inhalation anaesthesia. Following induction of anesthesia, the left thigh of the male, 6-7 week old Jcl:SD rat was shaved. The sciatic nerve was exposed at high thigh level through a small incision and was carefully cleared of surrounding connective tissues at a site near the trocanther just distal to the point at which the posterior biceps semitendinosus nerve branches off of the common sciatic nerve. A 7-0 silk suture was inserted into the nerve with a ⅜ curved, reversed-cutting mini-needle and tightly ligated so that the dorsal ⅓ to ½ of the nerve thickness was held within the ligature. The wound was closed with a single muscle suture (4-0 nylon (Vicryl)) and vetbond tissue glue. The wound area was then dusted with antibiotic powder. Sham treatment involved an identical surgical procedure except that the sciatic nerve was not manipulated or ligated.
Following surgery, animals were weighed and placed on a warm pad until they recovered from anesthesia. Animals were then returned to their home cages until behavioral testing began. The animal was assessed for response to noxious mechanical stimuli by determining PWT for the rear paw of the animal, as described below, prior to surgery (baseline), then immediately prior to and 1, 3, 5, 7, and 24 hours after oral drug-in-vehicle administration (for day 1). Thus, the 24 hour time point was the start of the next day when drug-in-vehicle was again orally administered (24 hours after the prior administration). On days 2 and 3, PWT response was determined 1, 3, and 24 hours thereafter. Percentage reversal of neuropathic hyperalgesia at each of the specified times after administration was defined as: […]
Additionally, 10 mg/kg of pregabalin (Kemprotec, Ltd., Middlesbrough, UK), an anticonvulsant accepted for relief of particular neuropathic pain, in vehicle and the vehicle alone (0.5% weight/volume methylcellulose (400cP, Wako Pure Chemical Industries, Ltd.)/aqueous solution) were orally administered as controls. […] Ten rats that underwent partial ligation of the left sciatic nerve were used for each treatment group. Dunnett's test was conducted for the % reversal; values with p<0.05 were considered to be statistically significant.
Additionally, as a control the rats underwent sham surgery in which an identical surgical procedure was followed with regard to the right thigh but the sciatic nerve was neither manipulated nor ligated.
Response to Mechanical Stimuli as an Assessment of Mechanical Hyperalgesia: The paw pressure assay was used to assess mechanical hyperalgesia. […] Biochem. and Behavior 31:451-455 (1988). The maximum weight that could be applied to the hind paw was set at 250 g and the end point was taken as complete withdrawal of the paw. PWT was determined once for each rat at each time point and either only the affected (ipsilateral) paw was tested, or both the ipsilateral and contralateral (non-injured) paw were tested.

Q: How did the “% Reversal [mean ± SEM]” value (1 mg/kg oral once daily, 1 hours (day 2) after administration) turn out when CC1CN(c2ncc(C(O)CO)cc2F)CCN1C(=O)Nc1nc2cc(F)ccc2s1.O=C(O)C=CC(=O)O (centres unmarked) was run?
A: 12.04 ± 4.92 %

Q: What about the “% Reversal [mean ± SEM]” value (1 mg/kg oral once daily, 1 hours (day 3) after administration) of the same compound?
A: 6.44 ± 6.50%

Q: What about the “% Reversal [mean ± SEM]” value (1 mg/kg oral once daily, 3 hours (day 2) after administration) of the same compound?
A: 12.84 ± 4.12 %

Q: And the “% Reversal [mean ± SEM]” value (1 mg/kg oral once daily, 3 hours (day 3) after administration)?
A: 9.58 ± 5.23%

Q: What about the “% Reversal [mean ± SEM]” value (1 mg/kg oral once daily, 24 hours (0 hrs day 2) after administration) of the same compound?
A: 0.71 ± 2.46%

Q: And the “% Reversal [mean ± SEM]” value (1 mg/kg oral once daily, 24 hours (0 hrs day 3) after administration)?
A: 4.89 ± 2.68%

Q: And the “% Reversal [mean ± SEM]” value (1 mg/kg oral once daily, 24 hours (0 hrs day 4) after administration)?
A: 0.51 ± 3.15%

Q: What about the “% Reversal [mean ± SEM]” value (1 mg/kg oral, 1 hours (day 1) after administration) of the same compound?
A: 14.60 ± 4.26%

Q: What about the “% Reversal [mean ± SEM]” value (1 mg/kg oral, 3 hours (day 1) after administration) of the same compound?
A: 17.04 ± 4.91 %

Q: And the “% Reversal [mean ± SEM]” value (1 mg/kg oral, 5 hours (day 1) after administration)?
A: 11.39 ± 3.13 %

Q: And the “% Reversal [mean ± SEM]” value (1 mg/kg oral, 7 hours (day 1) after administration)?
A: 3.04 ± 4.49%

Q: What about the “% Reversal [mean ± SEM]” value (3 mg/kg oral once daily, 1 hours (day 2) after administration) of the same compound?
A: 12.57 ± 2.38 %

Q: And the “% Reversal [mean ± SEM]” value (3 mg/kg oral once daily, 1 hours (day 3) after administration)?
A: 11.80 ± 3.29%

Q: What about the “% Reversal [mean ± SEM]” value (3 mg/kg oral once daily, 3 hours (day 2) after administration) of the same compound?
A: 17.14 ± 5.38 %

Q: And the “% Reversal [mean ± SEM]” value (3 mg/kg oral once daily, 3 hours (day 3) after administration)?
A: 17.34 ± 3.91 %

Q: And the “% Reversal [mean ± SEM]” value (3 mg/kg oral once daily, 24 hours (0 hrs day 2) after administration)?
A: −5.34 ± 4.20%

Q: What about the “% Reversal [mean ± SEM]” value (3 mg/kg oral once daily, 24 hours (0 hrs day 3) after administration) of the same compound?
A: −3.85 ± 4.61%

Q: What about the “% Reversal [mean ± SEM]” value (3 mg/kg oral once daily, 24 hours (0 hrs day 4) after administration) of the same compound?
A: −1.95 ± 2.97%

Q: And the “% Reversal [mean ± SEM]” value (3 mg/kg oral, 1 hours (day 1) after administration)?
A: 15.69 ± 4.62%

Q: And the “% Reversal [mean ± SEM]” value (3 mg/kg oral, 3 hours (day 1) after administration)?
A: 18.39 ± 1.67 %

Q: And the “% Reversal [mean ± SEM]” value (3 mg/kg oral, 5 hours (day 1) after administration)?
A: 12.22 ± 1.89 %

Q: And the “% Reversal [mean ± SEM]” value (3 mg/kg oral, 7 hours (day 1) after administration)?
A: 7.65 ± 2.79%

Q: What about the “% Reversal [mean ± SEM]” value (10 mg/kg oral once daily, 1 hours (day 2) after administration) of the same compound?
A: 27.41 ± 4.56 %

Q: What about the “% Reversal [mean ± SEM]” value (10 mg/kg oral once daily, 1 hours (day 3) after administration) of the same compound?
A: 23.36 ± 4.69 %

Q: And the “% Reversal [mean ± SEM]” value (10 mg/kg oral once daily, 3 hours (day 2) after administration)?
A: 29.12 ± 5.44 %

Q: What about the “% Reversal [mean ± SEM]” value (10 mg/kg oral once daily, 3 hours (day 3) after administration) of the same compound?
A: 28.91 ± 5.72 %

Q: And the “% Reversal [mean ± SEM]” value (10 mg/kg oral once daily, 24 hours (0 hrs day 2) after administration)?
A: 3.38 ± 3.97%

Q: And the “% Reversal [mean ± SEM]” value (10 mg/kg oral once daily, 24 hours (0 hrs day 3) after administration)?
A: 2.87 ± 4.62%

Q: What about the “% Reversal [mean ± SEM]” value (10 mg/kg oral once daily, 24 hours (0 hrs day 4) after administration) of the same compound?
A: 11.09 ± 3.45%

Q: And the “% Reversal [mean ± SEM]” value (10 mg/kg oral, 1 hours (day 1) after administration)?
A: 32.51 ± 5.00 %

Q: What about the “% Reversal [mean ± SEM]” value (10 mg/kg oral, 3 hours (day 1) after administration) of the same compound?
A: 34.17 ± 5.60 %

Q: And the “% Reversal [mean ± SEM]” value (10 mg/kg oral, 5 hours (day 1) after administration)?
A: 19.59 ± 3.04 %

Q: And the “% Reversal [mean ± SEM]” value (10 mg/kg oral, 7 hours (day 1) after administration)?
A: 17.06 ± 2.95 %

Q: And the “% reversal of neuropathic hyperalgesia” value (oral 1 mg/kg once daily, day 2, 3 hour time point)?
A: 12.84%

Q: What about the “% reversal of neuropathic hyperalgesia, maximum analgesic efficacy” value (oral 1 mg/kg, single (day 1) administration) of the same compound?
A: 17.04%

Q: And the “% reversal of neuropathic hyperalgesia” value (oral 3 mg/kg once daily, day 2, 3 hour time point)?
A: 17.14%

Q: And the “% reversal of neuropathic hyperalgesia” value (oral 3 mg/kg once daily, day 3, 3 hour time point)?
A: 17.34%

Q: What about the “% reversal of neuropathic hyperalgesia, maximum analgesic efficacy” value (oral 3 mg/kg, 3 h after day 1 administration) of the same compound?
A: 18.39%

Q: And the “% reversal of neuropathic hyperalgesia” value (oral 10 mg/kg once daily, day 2, 3 hour time point)?
A: 29.12%

Q: And the “% reversal of neuropathic hyperalgesia” value (oral 10 mg/kg once daily, day 3, 3 hour time point)?
A: 28.91%

Q: And the “% reversal of neuropathic hyperalgesia” value (oral 10 mg/kg, 3 h after day 1 administration (maximum))?
A: 34.17%
